What all share (assay type): in vivo
The subject of assay [1] is common house mosquitos (Culex pipiens pallens). The assay can be described thus: Test Method 12: mosquito larvae released into diluted solution. Conditions: 24 h, last instar larvae, after 1 day, 25°C, read-out: controlling value. The protocol:
(§1) The following tests in the test examples below were conducted at 25°C.
Into the diluted solution, 30 common house mosquitos (Culex pipiens pallens) at the last instar larval stage are released, and after 1 day, the state of the house mosquito larvae is examined, and the mortality of insects is calculated by the following equation. [formula]

Assay [2] concerns diamondback moth (Plutella xylostella). Briefly: Test Method 4: sprayed cabbage leaves fed to second instar diamondback moth. Conditions: 120 h, second instar larvae, after 5 days, 25°C, read-out: mortality of insects. The protocol:
Next, an efficacy of the present compound on controlling harmful arthropods is shown by Test examples. The following tests in the test examples below were conducted at 25°C.
Test compounds are made to a formulation according to a similar method to that described in the Formulation example 1, and thereto is added water containing 0.03 v/v% of Shindain (registered trademark) to prepare a diluted solution containing a prescribed concentration of the test compound.
Cabbage (Brassicae oleracea) seedling (on the developmental stage of the second to third true leaf) is planted in a cup, and the diluted solutions are sprayed into the seedling at a ratio of 20 mL/seedling. Thereafter, the stem and leaf thereof are cut out and then is installed into a cup that is covered with filter paper on the bed of the cup. Five (5) diamondback moth (Plutella xylostella) at the second instar larval stage are released into the cup. After 5 days, the number of the surviving insects is counted, and the mortality of insects is calculated by the following equation. [formula]

Assay [3] deals with cotton worm (Spodoptera litura). The assay can be described thus: Test Method 3: sprayed cabbage leaves fed to second instar cotton worm. To be noted: 120 h, second instar larvae, after 5 days, 25°C, read-out: mortality of insects. The protocol: as §1
Cabbage (Brassicae oleracea) seedling (on the developmental stage of the second to third true leaf) is planted in a cup, and the diluted solutions are sprayed into the seedling at a ratio of 20 mL/seedling. Thereafter, the stem and leaf thereof are cut out and then is installed into a cup that is covered with filter paper on the bed of the cup. Five (5) cotton worm (Spodoptera litura) at the second instar larval stage are released into the cup. After 5 days, the number of the surviving insects is counted, and the mortality of insects is calculated by the following equation. [formula]

Assay [4] concerns diamondback moth (Plutella xylostella). Briefly: Test Method 10: sprayed cabbage seedling, third instar diamondback moth (Formulation example 5). To be noted: 144 h, third instar larvae, after 6 days, 25°C, read-out: controlling value. The protocol:
as §1
Cabbage (Brassicae oleracea) seedling (on the developmental stage of the third to fourth true leaf) is planted in a cup, and the diluted solutions are sprayed into the seedling at a ratio of 20 mL/seedling. Thereafter, ten (10) diamondback moth (Plutella xylostella) at the third instar larval stage are released onto the seedling. After 6 days, the number of the surviving insects is counted, and the mortality of insects is calculated by the following equation. [formula]

Assay [5] deals with cotton aphids (Aphis gossypii). Briefly: Test Method 1: foliar spray on cucumber seedling infested with cotton aphids (Formulation example 1). To be noted: 120 h, spray 10 mL/seedling, examined after 5 days, 25°C, read-out: controlling value.
The subject of assay [6] is cotton aphids (Aphis gossypii). The assay can be described thus: Test Method 11: foliar spray on cucumber seedling infested with cotton aphids (Formulation example 5). Conditions: 120 h, spray 10 mL/seedling, examined after 5 days, 25°C, read-out: controlling value.
Assay [7] has as its system cotton worm (Spodoptera litura). The assay can be described thus: Test Method 9: sprayed cabbage seedling, third instar cotton worm (Formulation example 5). Conditions: 144 h, third instar larvae, after 6 days, 25°C, read-out: controlling value. The protocol: as §1
Cabbage (Brassicae oleracea) seedling (on the developmental stage of the third to fourth true leaf) is planted in a cup, and the diluted solutions are sprayed into the seedling at a ratio of 20 mL/seedling. Thereafter, ten (10) cotton worm (Spodoptera litura) at the third instar larval stage are released onto the seedling. After 6 days, the number of the surviving insects is counted, and the mortality of insects is calculated by the following equation. [formula]

SMILES strings stand for the structures.

`CCS(=O)(=O)c1c(C(=O)N(C)c2nc3cccc(F)c3s2)nc2ccc(I)cn12` [compound 22]: the mortality at 3.5 ppm in assay [1] is at least 90%. Also, the mortality at 500 ppm was at least 80% in assay [2], at least 80% in assay [3] and at least 90% in assay [5]. Besides, the mortality at 50 ppm in assay [4] is at least 80%; in assay [6], at least 90%. Moreover, the mortality at 200 ppm is at least 80% in assay [4], at least 90% in assay [6] and at least 80% in assay [7].

Consider `CCS(=O)(=O)c1c(C(=O)N(C)c2nc3ccc(F)cc3s2)nc2ccc(I)cn12` [compound 23], for which the mortality at 3.5 ppm in assay [1] is at least 90%. Further, the results for the mortality at 500 ppm in assay [2], in assay [3] and in assay [5] were at least 80%, at least 80% and at least 90%, respectively. Besides, the mortality at 50 ppm in assay [4] is at least 80%; in assay [6], at least 90%; in assay [7], at least 80%. In addition, the mortality at 200 ppm was at least 90% in assay [6] and at least 80% in assay [7].

With `CCS(=O)(=O)c1c(C(=O)N(C)c2nc3cc(Cl)ccc3s2)nc2ccc(I)cn12` [compound 29], the mortality at 3.5 ppm in assay [1] is at least 90%. Further, the mortality at 500 ppm in assay [2] was at least 80%; in assay [3], at least 80%; in assay [5], at least 90%. The mortality at 50 ppm in assay [4] and in assay [7] was at least 80% throughout. Further, the mortality at 200 ppm is at least 80% in assay [4], at least 90% in assay [6] and at least 80% in assay [7].

In the case of `CCS(=O)(=O)c1c(C(=O)N(C)c2nc3ccccc3s2)nc2ccc(I)cn12` [compound 31], in assay [1], the mortality at 3.5 ppm was at least 90%. Further, the mortality at 500 ppm in assay [2] was at least 80%; in assay [3] it was at least 80%; in assay [5], at least 90%. The mortality at 50 ppm in assay [4] is at least 80%; in assay [6], at least 90%; in assay [7], at least 80%. In addition, the mortality at 200 ppm in assay [4] was at least 80%; in assay [6] it was at least 90%; in assay [7] it was at least 80%.

Consider `CCS(=O)(=O)c1c(C(=O)N(C)c2nc3c(F)cc(F)cc3s2)nc2ccc(I)cn12` [compound 35], for which, in assay [1], the mortality at 3.5 ppm is at least 90%. Further, the mortality at 500 ppm was at least 80% in assay [2], at least 80% in assay [3] and at least 90% in assay [5]. In addition, the mortality at 50 ppm in assay [4] and in assay [7] was at least 80% in each case. The mortality at 200 ppm in assay [4] and in assay [7] was at least 80% throughout.

Regarding `CCS(=O)(=O)c1c(C(=O)N(C)c2nc3ccc(F)cc3o2)nc2ccc(I)cn12` [compound 40], the mortality at 3.5 ppm in assay [1] was at least 90%. For the same molecule, the mortality at 500 ppm in assay [2] was at least 80%; in assay [5], at least 90%. The mortality at 200 ppm in assay [6] was at least 90%.

`CCS(=O)(=O)c1c(C(=O)N(C)c2nc3cc(Cl)ccc3o2)nc2ccc(I)cn12` [compound 41]: the mortality at 3.5 ppm in assay [1] is at least 90%. In addition, the values for the mortality at 500 ppm in assay [2] and in assay [5] were at least 80% and at least 90%, respectively. Moreover, the mortality at 50 ppm was at least 80% in assay [4] and at least 90% in assay [6]. Moreover, the mortality at 200 ppm in assay [4] is at least 80%; in assay [6] it was at least 90%.

Consider `CCS(=O)(=O)c1c(C(=O)N(C)c2nc3cc(F)c(F)cc3o2)nc2ccc(I)cn12` [compound 42], for which, in assay [1], the mortality at 3.5 ppm is at least 90%. Also, the mortality at 500 ppm was at least 80% in assay [3] and at least 90% in assay [5].

Turning to `CCS(=O)(=O)c1cccnc1C(=O)N(C)c1nc2cc(C(F)(F)F)ccc2n1C` [compound 56], the mortality at 3.5 ppm in assay [1] is at least 90%. For the same molecule, the mortality at 500 ppm in assay [2] is at least 80%; in assay [5], at least 90%.

In the case of `CCSc1c(C(=O)N(C)c2nc3cc(F)ccc3n2C)nc2ccc(I)cn12` [compound 70], in assay [1], the mortality at 3.5 ppm was at least 90%. For the same molecule, the mortality at 500 ppm in assay [5] was at least 90%. Besides, in assay [6], the mortality at 50 ppm was at least 90% and the mortality at 200 ppm was at least 90%.

Turning to `CCS(=O)(=O)c1c(C(=O)N(C)c2nc3ncc(F)cc3s2)nc2ccc(I)cn12` [compound 76], the mortality at 3.5 ppm in assay [1] is at least 90%. The mortality at 500 ppm in assay [2] is at least 80%; in assay [3], at least 80%; in assay [5], at least 90%. For the same molecule, the mortality at 50 ppm in assay [4] and in assay [7] was at least 80% each time. For the same molecule, the mortality at 200 ppm in assay [4] was at least 80%; in assay [6] it was at least 90%; in assay [7] it was at least 80%.

As for `CCS(=O)(=O)c1cc(-c2ccccn2)cnc1C(=O)N(C)c1nc2cc(F)c(F)cc2s1` [compound 109], in assay [1], the mortality at 3.5 ppm was at least 90%. Further, the mortality at 500 ppm in assay [2] was at least 80%; in assay [3], at least 80%; in assay [5], at least 90%. In addition, the values for the mortality at 50 ppm in assay [4], in assay [6] and in assay [7] were at least 80%, at least 90% and at least 80%, respectively. The mortality at 200 ppm in assay [4] is at least 80%; in assay [6], at least 90%; in assay [7], at least 80%.

For the molecule `CCS(=O)(=O)c1cc(-c2ccc(F)cn2)cnc1C(=O)N(C)c1nc2cc(F)c(F)cc2s1` [compound 110], the mortality at 3.5 ppm in assay [1] is at least 90%. In addition, the mortality at 500 ppm in assay [2] and in assay [3] was at least 80% throughout. Moreover, the mortality at 50 ppm in assay [4] and in assay [7] was at least 80% each time. Besides, the mortality at 200 ppm in assay [4] and in assay [7] was at least 80% in each case.

For `CCS(=O)(=O)c1cc(OC(C)(C)C)cnc1C(=O)N(C)c1nc2cc(F)c(F)cc2s1` [compound 128], the results for the mortality at 500 ppm in assay [2], in assay [3] and in assay [5] were at least 80%, at least 80% and at least 90%, respectively. Besides, the mortality at 50 ppm in assay [4] and in assay [7] was at least 80% throughout. The mortality at 200 ppm is at least 80% in assay [4], at least 90% in assay [6] and at least 80% in assay [7].

Turning to `CCS(=O)(=O)c1ccc(NC(=O)OC(C)(C)C)nc1C(=O)N(C)c1nc2cc(F)c(F)cc2s1` [compound 129], the mortality at 3.5 ppm in assay [1] was at least 90%. For the same molecule, the mortality at 500 ppm in assay [2] and in assay [3] was at least 80% throughout. The mortality at 200 ppm in assay [4] and in assay [7] was at least 80% in each case.

Take `CCS(=O)(=O)c1ccc(-n2cncn2)nc1C(=O)N(C)c1nc2cc(F)c(F)cc2s1` [compound 131]: the mortality at 3.5 ppm in assay [1] was at least 90%. The mortality at 500 ppm in assay [2] and in assay [3] was at least 80% in each case. The mortality at 50 ppm in assay [4] was at least 80%. Moreover, the mortality at 200 ppm in assay [4] and in assay [7] was at least 80% in each case.

As for `CCS(=O)(=O)c1ccc(N(C)C)nc1C(=O)N(C)c1nc2cc(F)c(F)cc2s1` [compound 135], the mortality at 3.5 ppm in assay [1] was at least 90%. Further, the mortality at 500 ppm in assay [2] and in assay [3] was at least 80% throughout. In addition, the mortality at 50 ppm is at least 80% in assay [4] and at least 90% in assay [6]. Besides, the mortality at 200 ppm in assay [4] was at least 80%; in assay [6], at least 90%.

Regarding `CCS(=O)(=O)c1ccc(NCCCN(C)C)nc1C(=O)N(C)c1nc2cc(F)c(F)cc2s1` [compound 136], the mortality at 3.5 ppm in assay [1] was at least 90%. The mortality at 500 ppm in assay [2] is at least 80%. The mortality at 200 ppm in assay [4] is at least 80%.

Regarding `CCS(=O)(=O)c1c(C(=O)N(C)c2nc3cc(F)c(F)cc3s2)nn(C)c1C1CC1` [compound 144], the mortality at 3.5 ppm in assay [1] was at least 90%. The mortality at 500 ppm in assay [2] was at least 80%; in assay [3] it was at least 80%; in assay [5] it was at least 90%. Further, the mortality at 50 ppm in assay [4] was at least 80%. The mortality at 200 ppm is at least 80% in assay [4] and at least 90% in assay [6].

(Values after patent EP4722205A1, “HETEROCYCLIC COMPOUND AND NOXIOUS ARTHROPOD-CONTROLLING COMPOSITION CONTAINING SAME” (Sumitomo Chemical Company, Limited, priority 2023, dated 2024).)
